One experiment has as its system C57B/6 mice. Briefly: Carvacrol-induced itch-scratching behavior in mice. Type of experiment: in vivo, mouse. As for the experimental part: To assess itch-scratching behaviors, the hair of the rostral part of the mouse’s right neck was shaved using an electric hair clipper 24 hr before the start of experiments. Trpv3^-/- mice have been described previously ([Wang et al., 2021]). Scratching behaviors were recorded on video. The number of itch-scratching bouts was counted through video playback analysis. One scratching bout was defined as an episode in which a mouse lifted its right hind limb to the injection site and scratched continuously for any time length until this limb was returned to the floor or mouth ([Wilson et al., 2013]). All behavioral experiments were conducted in a double-blind manner. […] [Sun and Dong, 2016]).

The target of another experiment is T1, TRPV3 L630W (Mus musculus, UniProt Q8K424, L630W).
T1 construct: expressed in transfected cells; host or cells: HEK 293T
T1 sequence (Q8K424 whole entry L630W): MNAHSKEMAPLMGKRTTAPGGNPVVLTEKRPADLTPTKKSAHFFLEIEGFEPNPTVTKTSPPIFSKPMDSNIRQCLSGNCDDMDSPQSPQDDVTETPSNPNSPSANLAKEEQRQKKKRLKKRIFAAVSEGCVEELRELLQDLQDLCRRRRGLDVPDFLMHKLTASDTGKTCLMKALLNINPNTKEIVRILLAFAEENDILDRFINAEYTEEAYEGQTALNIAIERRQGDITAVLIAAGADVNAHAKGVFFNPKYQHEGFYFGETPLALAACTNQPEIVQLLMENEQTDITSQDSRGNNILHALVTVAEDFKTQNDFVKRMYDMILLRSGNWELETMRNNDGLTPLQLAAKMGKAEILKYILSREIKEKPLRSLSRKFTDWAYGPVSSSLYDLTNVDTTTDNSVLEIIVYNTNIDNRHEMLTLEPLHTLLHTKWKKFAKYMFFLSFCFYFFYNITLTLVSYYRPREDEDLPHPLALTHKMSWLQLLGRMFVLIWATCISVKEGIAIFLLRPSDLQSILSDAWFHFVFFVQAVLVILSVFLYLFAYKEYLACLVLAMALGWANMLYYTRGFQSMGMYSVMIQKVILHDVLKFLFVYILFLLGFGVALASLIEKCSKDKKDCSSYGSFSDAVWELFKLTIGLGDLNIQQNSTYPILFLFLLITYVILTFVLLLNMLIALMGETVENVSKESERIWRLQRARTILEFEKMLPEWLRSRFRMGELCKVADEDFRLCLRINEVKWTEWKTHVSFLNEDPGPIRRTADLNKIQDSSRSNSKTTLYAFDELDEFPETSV
Briefly: Whole-cell recording of TRPV3 mutant L630W in HEK 293T cells. Type of experiment: cell-based. The note with it: 2-APB (1 mM)-evoked, –60 mV, read-out: IC50 for inhibition of TRPV3 mutant. The source says:
(§1) The WT mouse TRPV3 (mTRPV3), human TRPV3 (hTRPV3), rat TRPV1, rat TRPV2, rat TRPM8, and mouse TRPA1 cDNAs were generously provided by Dr. Feng Qin (State University of New York at Buffalo, Buffalo, USA). The GFP-mTRPV3 WT and the mutants (mTRPV3-G573S and mTRPV3-G573C) in pcDNA4/TO vector were gifts from Dr. Michael X Zhu (The University of Texas Health Science Center at Houston, Houston, USA). The WT fTRPV3 was kindly provided by Dr. Makoto Tominaga (Department of Physiological Sciences, SOKENDAI, Okazaki, Japan). All mutations were made using the overlap-extension polymerase chain reaction method as previously described ([Tian et al., 2019]). The resulting mutations were then verified by DNA sequencing. […]
(§2) Conventional whole-cell and excised patch-clamp recording methods were used. […] For a subset of recordings, currents were amplified using an Axopatch 200B amplifier (Molecular Devices, Sunnyvale, CA) and recorded through a BNC-2090/MIO acquisition system (National Instruments, Austin, TX) using QStudio developed by Dr. Feng Qin at State University of New York at Buffalo. […] As determined by the conductance tests, the solution around a patch under study was fully controlled by the application of a flow rate of 100 μl/min or greater. […]

The target of a further experiment is T2, TRPV3 N643A (Mus musculus, UniProt Q8K424, N643A).
T2 construct: expressed in transfected cells; host or cells: HEK 293T
T2 sequence (Q8K424 whole entry N643A): as the sequence (Q8K424 whole entry L630W) above, with W630L, N643A counted along it
Briefly: Whole-cell recording of TRPV3 mutant N643A in HEK 293T cells. The note with it: 2-APB (1 mM)-evoked, –60 mV, read-out: IC50 for inhibition of TRPV3 mutant. Type of experiment: cell-based.
Text: as §1, §2

Another experiment addresses T3, TRPV3 F666A (Mus musculus, UniProt Q8K424, F666A).
T3 construct: expressed in transfected cells; host or cells: HEK 293T
The experiment can be described thus: Whole-cell recording of TRPV3 mutant F666A in HEK 293T cells. The experiment is classed as cell-based. The note with it: 2-APB (1 mM)-evoked, –60 mV, read-out: IC50 for inhibition of TRPV3 mutant.
Text: as §1, §2

T3 sequence (Q8K424 whole entry F666A): as the sequence (Q8K424 whole entry L630W) above, with W630L, F666A counted along it

By IC50 is commonly meant the concentration that gives 50% inhibition. As to `CCCCOc1ccc(C(=O)CCN2CCCCC2)cc1` [dyclonine], the “scratching bouts over 30 min” value in the experiment on C57B/6 mice (50 μl dyclonine 1 μM intradermal 30 min before carvacrol (0.1%, 50 μl)) came to 130.0 ± 20.3; in the experiment on C57B/6 mice (50 μl dyclonine 10 μM intradermal 30 min before carvacrol (0.1%, 50 μl)), 82.0 ± 15.0; in the experiment on C57B/6 mice (50 μl dyclonine 50 μM intradermal 30 min before carvacrol (0.1%, 50 μl)), 18.0 ± 8.0. The results for the IC50 on TRPV3 L630W, on TRPV3 N643A and on TRPV3 F666A were 30.8 ± 2.2 µM, 37.7 ± 5.1 µM and 414 ± 15.7 µM, respectively.

The values are drawn from publication PMC8112869, “Therapeutic inhibition of keratinocyte TRPV3 sensory channel by local anesthetic dyclonine” (eLife, 2021).
